The values that follow come from ChEMBL document CHEMBL1130517 (Bioorg Med Chem Lett, 1997).

Experiment [1] has as its target T1, Endothelin-1 receptor (Homo sapiens, UniProt P25101).
T1 sequence (P25101 whole entry): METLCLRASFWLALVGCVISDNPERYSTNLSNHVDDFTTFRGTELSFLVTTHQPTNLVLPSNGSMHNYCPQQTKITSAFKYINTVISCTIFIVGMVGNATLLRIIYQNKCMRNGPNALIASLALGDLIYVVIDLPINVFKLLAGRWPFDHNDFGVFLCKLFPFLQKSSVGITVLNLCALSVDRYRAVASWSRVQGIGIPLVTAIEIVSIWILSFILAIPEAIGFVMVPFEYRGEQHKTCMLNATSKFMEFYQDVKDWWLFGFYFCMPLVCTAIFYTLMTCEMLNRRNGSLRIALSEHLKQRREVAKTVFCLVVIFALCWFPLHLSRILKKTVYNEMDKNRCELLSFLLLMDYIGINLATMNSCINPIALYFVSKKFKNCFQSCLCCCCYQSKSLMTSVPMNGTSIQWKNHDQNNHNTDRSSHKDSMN
Put plainly: Receptor binding affinity was determined against [125I]ET1 with recombinant human ETA receptor, expressed in baculovirus-infected Sf9 cells.

Experiment [2] concerns the target T2, Endothelin-1 receptor (Rattus norvegicus, UniProt P26684).
T2 sequence (P26684 whole entry): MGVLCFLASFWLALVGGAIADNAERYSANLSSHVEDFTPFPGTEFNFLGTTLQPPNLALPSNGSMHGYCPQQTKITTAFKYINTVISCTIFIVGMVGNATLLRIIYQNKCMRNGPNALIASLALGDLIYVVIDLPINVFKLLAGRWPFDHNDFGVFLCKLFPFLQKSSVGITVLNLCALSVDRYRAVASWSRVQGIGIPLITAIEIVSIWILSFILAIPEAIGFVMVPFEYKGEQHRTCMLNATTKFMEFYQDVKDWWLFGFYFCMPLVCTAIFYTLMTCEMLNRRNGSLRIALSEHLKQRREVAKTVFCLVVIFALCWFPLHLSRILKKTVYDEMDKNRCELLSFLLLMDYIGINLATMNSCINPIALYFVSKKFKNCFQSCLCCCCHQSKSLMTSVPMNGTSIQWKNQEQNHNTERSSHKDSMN
Put plainly: Evaluation for functional inhibitory potency prevention of ET-1 induced constriction of rat aortic rings (ETA receptors). The note with it: read-out: pA2 (converted).

The target in experiment [3] is T3, Endothelin receptor type B (Homo sapiens, UniProt P24530).
T3 sequence (P24530 whole entry): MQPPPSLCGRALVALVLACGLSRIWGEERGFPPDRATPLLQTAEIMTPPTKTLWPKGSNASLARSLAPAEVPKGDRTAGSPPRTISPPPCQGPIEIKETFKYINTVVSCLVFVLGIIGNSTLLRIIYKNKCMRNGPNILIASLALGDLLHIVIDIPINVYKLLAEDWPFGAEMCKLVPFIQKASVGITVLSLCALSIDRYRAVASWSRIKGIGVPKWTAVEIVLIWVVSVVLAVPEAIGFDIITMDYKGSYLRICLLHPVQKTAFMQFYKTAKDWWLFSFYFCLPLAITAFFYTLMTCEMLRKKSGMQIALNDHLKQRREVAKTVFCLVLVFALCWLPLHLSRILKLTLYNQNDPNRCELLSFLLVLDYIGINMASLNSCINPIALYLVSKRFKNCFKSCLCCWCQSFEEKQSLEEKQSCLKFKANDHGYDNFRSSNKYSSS
Put plainly: Receptor binding affinity was determined against [125I]ET1 with membranes prepared from human placenta for ETB receptor.

Experiment [4] addresses T4, Endothelin receptor type B (Rattus norvegicus, UniProt P21451).
T4 sequence (P21451 whole entry): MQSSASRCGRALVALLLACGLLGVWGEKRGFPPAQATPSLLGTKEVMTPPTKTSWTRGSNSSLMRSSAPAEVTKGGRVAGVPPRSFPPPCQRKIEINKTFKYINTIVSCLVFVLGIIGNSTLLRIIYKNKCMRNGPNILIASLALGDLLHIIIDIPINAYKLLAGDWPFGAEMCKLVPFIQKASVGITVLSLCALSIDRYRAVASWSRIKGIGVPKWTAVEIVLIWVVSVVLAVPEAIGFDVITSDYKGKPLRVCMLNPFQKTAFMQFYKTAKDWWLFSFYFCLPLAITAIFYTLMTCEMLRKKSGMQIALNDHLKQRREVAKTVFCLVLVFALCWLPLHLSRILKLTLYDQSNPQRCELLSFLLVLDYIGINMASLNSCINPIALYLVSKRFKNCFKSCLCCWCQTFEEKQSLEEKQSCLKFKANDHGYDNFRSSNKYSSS
The experiment is described as follows: Compound was evaluated for in vitro functional inhibitory potency for prevention of sarafotoxin S6c induced constriction of rat tracheal rings (ETB receptors). The note with it: read-out: pA2 (converted).

For experiment [5], the target named is T1, Endothelin-1 receptor. Put plainly: Receptor binding affinity was determined in a radioligand binding assay against [125I]ET1 with recombinant human ETA receptor, expressed in baculovirus-infected […] cells.
For experiment [6], the target named is T2, Endothelin-1 receptor. Put plainly: Compound was evaluated for in vitro functional inhibitory potency for prevention of ET-1 induced constriction of rat aortic rings (ETA receptors). The note with it: read-out: pA2 (converted).

On to `CCCc1nc(NS(=O)(=O)c2ccc(C(C)(C)C)cc2)c(Oc2ccccc2OC)c(OCCOC(=O)Nc2ccccn2)n1`, for which the IC50 (in general, the concentration that gives 50% inhibition) on Endothelin-1 receptor [1] came out at 9 nM; in experiment [3], 63 nM. In addition, the Kb at Endothelin-1 receptor [2] is 12.6 nM.
On to `COc1ccccc1Oc1c(NS(=O)(=O)c2ccc(C(C)(C)C)cc2)nc(C(C)(C)C)nc1OCCOC(=O)Nc1ccccn1`, for which the IC50 on Endothelin-1 receptor [1] stood at 14 nM; in experiment [3], 144 nM. Further, the Kb on Endothelin-1 receptor [2] was 25.1 nM.
For the molecule `COc1ccccc1Oc1c(NS(=O)(=O)c2ccc(C(C)(C)C)cc2)nc(C)nc1OCCOC(=O)Nc1ccncc1`, the 50% inhibitory concentration (IC50) on Endothelin-1 receptor [1] turned out to be 1900 nM; in experiment [3], 2800 nM.
Regarding `COc1ccccc1Oc1c(NS(=O)(=O)c2ccc(C(C)C)cn2)nc(N2CCSCC2)nc1OCCOC(=O)Nc1ccccn1`, the figures for the IC50 (at Endothelin-1 receptor [1]; in experiment [3]) were 1 nM and 14 nM, respectively. The Kb at Endothelin-1 receptor [2] is 1.58 nM.
For `CNCC(=O)OCCOc1nc(C)nc(NS(=O)(=O)c2ccc(C(C)(C)C)cc2)c1Oc1ccccc1OC`, the IC50 on Endothelin-1 receptor [1] worked out at 1700 nM; in experiment [3], 300 nM.
On to `COc1ccccc1Oc1c(NS(=O)(=O)c2ccc(C(C)(C)C)cc2)nc(-c2ncccn2)nc1OCCOC(=O)Nc1ccccn1`, for which the Kb on Endothelin-1 receptor [2] was 1 nM. In experiment [3], this molecule registered an IC50 of 43 nM.
For the molecule `COc1ccccc1Oc1c(NS(=O)(=O)c2ccc(C(C)C)cn2)nc(-c2ncccn2)nc1OCCOC(=O)Nc1ccccn1`, the IC50 was found to be 4 nM at Endothelin-1 receptor [1] and 49 nM in experiment [3]. Moreover, on Endothelin-1 receptor [2], the Kb was 0.1 nM.
Regarding `COc1ccccc1Oc1c(NS(=O)(=O)c2ccc(C)cn2)nc(-c2ncccn2)nc1OCCOC(=O)Nc1ccccn1`, the IC50 came to 4 nM at Endothelin-1 receptor [1] and 170 nM in experiment [3]. Besides, the Kb at Endothelin-1 receptor [2] is 1 nM.
`COc1ccccc1Oc1c(NS(=O)(=O)c2ccc(C(C)(C)C)cc2)nc(N2CCOCC2)nc1OCCOC(=O)Nc1ccccn1`: the IC50 came to 17 nM on Endothelin-1 receptor [1] and 19 nM in experiment [3]. Further, the Kb on Endothelin-1 receptor [2] is 10 nM.
For `COc1ccccc1Oc1c(NS(=O)(=O)c2ccc(C(C)(C)C)cc2)nc(-c2cccs2)nc1OCCOC(=O)Nc1ccccn1` the same measures were 30 nM, 200 nM and 10 nM.
Regarding `COc1ccccc1Oc1c(NS(=O)(=O)c2ccc(C)cn2)nc(N2CCOCC2)nc1OCCOC(=O)Nc1ccccn1`, the IC50 on Endothelin-1 receptor [1] is 0.2 nM; in experiment [3], 25 nM. Moreover, the Kb on Endothelin-1 receptor [2] is 0.2 nM.
For `COc1ccccc1Oc1c(NS(=O)(=O)c2ccc(C(C)(C)C)cc2)nc(C2CC2)nc1OCCOC(=O)Nc1ccccn1`, the half-inhibitory concentration (IC50) at Endothelin-1 receptor [1] stood at 7 nM; in experiment [3], 60 nM. Also, the Kb on Endothelin-1 receptor [2] was 20 nM.
As for `COc1ccccc1Oc1c(NS(=O)(=O)c2ccc(C(C)(C)C)cc2)nc(C)nc1OCCOC(=O)c1cccnc1`, the IC50 on Endothelin-1 receptor [1] is 880 nM; in experiment [3], 770 nM.
For the molecule `COc1ccccc1Oc1c(NS(=O)(=O)c2ccc(C(C)(C)C)cc2)nc(C)nc1OCCOC(=O)Nc1cccnc1`, the IC50 was 900 nM at Endothelin-1 receptor [1] and 700 nM in experiment [3].
For the molecule `COc1ccccc1Oc1c(NS(=O)(=O)c2ccc(C(C)(C)C)cc2)nc(C)nc1OCCOC(=O)Nc1ccccn1`, the half-maximal inhibitory concentration (IC50) on Endothelin-1 receptor [1] stood at 8 nM; in experiment [3] it was 120 nM.
Take `COc1ccccc1Oc1c(NS(=O)(=O)c2ccc(C(C)C)cn2)nc(N2CCCCC2)nc1OCCOC(=O)Nc1ccccn1`: the IC50 is 3 nM at Endothelin-1 receptor [1] and 25 nM in experiment [3]. Besides, the Kb at Endothelin-1 receptor [2] is 5.01 nM.
With `COc1ccccc1Oc1c(NS(=O)(=O)c2ccc(C(C)(C)C)cc2)nc(C)nc1OCCNC(=O)Nc1ccccn1`, the IC50 on Endothelin-1 receptor [1] was determined as 80 nM; in experiment [3] it was 1240 nM.
As to `COc1ccccc1Oc1c(NS(=O)(=O)c2ccc(C(C)(C)C)cc2)nc(C(C)C)nc1OCCOC(=O)Nc1ccccn1`, the IC50 on Endothelin-1 receptor [1] amounted to 7 nM; in experiment [3] it was 160 nM. For the same molecule, the Kb on Endothelin-1 receptor [2] was 15.8 nM.
As to `COc1ccccc1Oc1c(NS(=O)(=O)c2ccc(C(C)C)cn2)nc(N2CCOCC2)nc1OCCOC(=O)Nc1ccccn1`, the Kb in experiment [4] is 25.1 nM; at Endothelin-1 receptor [6] it was 0.501 nM. Besides, the values for the IC50 (on Endothelin-1 receptor [1]; on Endothelin-1 receptor [5]; in experiment [3]) were 0.3 nM, 0.7 nM and 5 nM, respectively.
In the case of `COc1ccccc1Oc1c(NS(=O)(=O)c2ccc(C(C)(C)C)cc2)nc(C)nc1OCCO`, the figures for the IC50 (at Endothelin-1 receptor [1]; in experiment [3]) were 1500 nM and 70 nM, respectively.
`COc1ccccc1Oc1c(NS(=O)(=O)c2ccc(C(C)(C)C)cc2)nc(C)nc1OCCOC(=O)c1ccoc1`: the figures for the IC50 (on Endothelin-1 receptor [1]; in experiment [3]) were 1100 nM and 1000 nM, respectively.
Consider `COc1ccccc1Oc1c(NS(=O)(=O)c2ccc(C(C)(C)C)cc2)nc(-c2ncccn2)nc1OCCO` [BOSENTAN], for which the values for the Kb (in experiment [4]; on Endothelin-1 receptor [6]) were 1580 nM and 50.1 nM, respectively.
